Data published in patent US5688943A, “Benzodiazepine derivatives useful as CCK-receptor antagonists” (Yamanouchi Pharmaceutical Co., Ltd., priority 1992, dated 1997).

Tests used:
CCK-A receptors = target: T1, CCK-A receptors (Rattus norvegicus, UniProt P30551); assay: Measurement of binding affinity for CCK-A receptors ([3H]L-364,718, rat pancreas membranes); parameters: species or system SD rat; settings: [3H]L-364,718, 37° C., 30 minutes, read-out: Receptor binding affinity IC50, CCK-A
T1 construct: The pancreas of an SD rat was homogenized; from tissue; host or cells: SD rat pancreas membranes
T1 sequence (P30551 1-444): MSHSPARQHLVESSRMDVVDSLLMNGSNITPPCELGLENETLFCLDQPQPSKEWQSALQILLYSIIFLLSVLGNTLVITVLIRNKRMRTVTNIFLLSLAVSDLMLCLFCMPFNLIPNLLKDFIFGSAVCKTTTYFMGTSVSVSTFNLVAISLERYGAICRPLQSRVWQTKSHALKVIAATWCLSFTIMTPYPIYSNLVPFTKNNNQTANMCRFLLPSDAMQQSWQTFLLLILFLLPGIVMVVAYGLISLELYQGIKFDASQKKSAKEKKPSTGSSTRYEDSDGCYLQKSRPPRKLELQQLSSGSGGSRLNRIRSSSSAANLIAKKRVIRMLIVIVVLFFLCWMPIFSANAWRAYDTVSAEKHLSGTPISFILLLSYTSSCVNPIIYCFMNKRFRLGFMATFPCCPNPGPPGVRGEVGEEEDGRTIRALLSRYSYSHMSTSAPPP
Procedure: Measurement of binding affinity for CCK-A receptors
The pancreas of an SD rat was homogenized in a 20-fold volume of 50 mM Tris-HCl buffer (pH 7.7) by the use of a Polytrone-type homogenizer, the homogenate was twice centrifuged for 10 minutes at 50000 g by the use of an ultra-centrifuge, the precipitate thus obtained was suspended in a 40-fold volume of 50 mM Tris-HCl buffer (containing 0.2% BSA, 5 mM MgCl2, 0.1 mg/ml bacitracin and 5 mM DTT; pH 7.7), and the suspension was stored at -80° C. until the membrane preparations were required.
The membrane preparations were then warmed to room temperature, diluted 1:10 with the buffer and incubated at 37° C. for 30 minutes in the presence of [^3 H]L-364,718 and the test compound then separated by suction filtration. Non-specific binding was determined in the presence of 1 μM L-364,718. The amount of labelled ligand bound to the receptor was measured by the use of a liquid scintillation counter; IC50 values were determined, being that concentration of test compound required to inhibit specific binding by 50%
(§1) A high affinity for the CCK-A receptor in a gastrin/CCK-B antagonist is thought to be undesirable as it may lead to side-effects such as cholestasis and gall stone formation during therapy. Therefore it is preferable for the therapeutic agent to be selective for the CCK-B receptor. This selectivity is expressed by the ratio IC50 (CCK-A)/IC50 (CCK-B); the higher the value of this ratio the better is the selectivity.

CCK-B receptors = target: T2, CCK-B receptors (Rattus norvegicus, UniProt P30553); assay: Measurement of binding affinity for CCK-B receptors ([125I]BH-CCK-8, rat brain membranes); parameters: species or system SD rats; settings: ratio IC50 (CCK-A)/IC50 (CCK-B)
T2 construct: the whole brain was immediately excised from each of the rats and homogenized; from tissue; host or cells: SD rat whole brain membranes
T2 sequence (P30553 whole entry): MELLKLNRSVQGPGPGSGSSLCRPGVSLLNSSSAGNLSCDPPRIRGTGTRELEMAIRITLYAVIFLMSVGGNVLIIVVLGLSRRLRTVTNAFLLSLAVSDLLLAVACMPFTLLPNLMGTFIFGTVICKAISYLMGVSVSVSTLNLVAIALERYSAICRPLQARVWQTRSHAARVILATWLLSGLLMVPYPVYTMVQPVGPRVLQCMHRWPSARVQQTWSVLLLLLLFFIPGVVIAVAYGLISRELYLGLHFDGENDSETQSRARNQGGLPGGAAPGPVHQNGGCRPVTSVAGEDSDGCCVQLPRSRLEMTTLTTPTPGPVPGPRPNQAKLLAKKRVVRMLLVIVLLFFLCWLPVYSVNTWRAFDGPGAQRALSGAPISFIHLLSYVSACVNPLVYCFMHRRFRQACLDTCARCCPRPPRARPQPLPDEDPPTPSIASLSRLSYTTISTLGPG
Procedure: Measurement of binding affinity for CCK-B receptors
About 100 SD rats were decapitated without anaesthesia, the whole brain was immediately excised from each of the rats and homogenized in 10-fold volume of 0.32M aqueous solution of sucrose by the use of a Teflon-coated homogenizer, the homogenate thus obtained was centrifuged for ten minutes at 900 g by the use of a cooled centrifuge, and the supernatant was further centrifuged for 15 minutes at 11500 g. The precipitate thus obtained was dispersed in 50 mM Tris-HCl buffer (pH 7.4) containing 0.08% Triton X-100, this suspension was allowed to stand for 30 minutes and again centrifuged for 15 minutes at 11500 g, the precipitate thus obtained was washed twice with 5 mM Tris-HCl buffer and twice with 50 mM Tris-HCl buffer in that order with centrifugal separation, the washed precipitate was suspended in 50 mM Tris-HCl buffer, and the suspension thus obtained was stored at -80° C. until the membrane preparation was required.
The membrane preparations were warmed to room temperature, diluted with 10 mM HEPES buffer (containing 130 mM NaCl, 5 mM MgCl2, 1 mM EGTA and 0.25 mg/ml bacitracin; pH 6.5) and incubated at 25° C. for 120 minutes in the presence of [^125 I]BH-CCK-8 and the test compound, then separated by suction filtration. Non-specific binding was determined in the presence of 1 μM CCK-8. The amount of labelled ligand bound to the receptor was measured by the use of a γ-counter; IC50 values were determined, being that concentration of test compound required to inhibit specific binding by 50%.
as §1

[1] = test system: pentagastrin-stimulated gastric acid secretion; assay: Measurement of inhibition of pentagastrin-stimulated gastric acid secretion in rat; format: in vivo; settings: anaesthetised rat, test drug intravenous, pentagastrin 15 μg/Kg/hr i.v.; read-out: ED50, reduction of pentagastrin-stimulated gastric acid secretion to 50% of the maximum level
Excerpt: Measurement of inhibition of pentagastrin-stimulated gastric acid secretion in rat
A cannula was inserted into the trachea of a rat anaesthetised with urethane (intraperitoneally administered, 1.25 g/Kg), its abdominal wall was incised to expose the gastric and duodenal portions, and a polyethylene cannula was set in the anterior stomach after ligation of the cardia. The duodenum was then subjected to slight section, a polyethylene cannula was inserted from the incised portion toward the stomach, and the pylorus was ligated to fix the cannula.
Physiological saline (with pH adjusted to 7.0) was perfused from the anterior stomach toward the pylorus at a rate of 3 ml/min, and the gastric-acid secretion was measured by continuous titration of the perfusate by the use of a pH-stat (AUT-201; product of Toa Electronics, Ltd.). The continuous titration was carried out by using 25 mM NaOH solution until the pH reached 7.0, and the result was expressed as the amount of gastric acid secreted for every 10 minutes (μEq /10 min.). Pentagastrin was intravenously administered at a rate of 15 μg/Kg/hr.
The secretion of gastric acid increased upon administration of pentagastrin, reaching the maximum level after 60 minutes and stably maintaining this level after that. A test drug was then intravenously administered, and the secretion of gastric acid was measured; ED50 values were determined, being the amount of the drug required to reduce the amount of secreted gastic acid down to 50% of the maximum level.

Compound | IC50 (CCK-A receptors) [nM] | A/B Ratio (CCK-B receptors) | ED50 [1] [µmol/kg]
Cc1cccc(NC(=O)NC2N=C(c3ccccc3)c3ccccc3N(CC(=O)C3CCCC3)C2=O)c1 (racemic) [Example 4, N-((3RS)-1-Cyclopentylcarbonylmethyl-2,3-dihydro-2-oxo-5-phenyl-1H-1,4-benzodiazepin-3-yl)-N'-(3-methylphenyl)urea] | 440 | 1,900 | 0.016
Cc1cccc(NC(=O)NC2N=C(c3ccccc3)c3ccccc3N(CC(=O)C3CCCCCC3)C2=O)c1 (racemic) [Example 5, N-((3RS)-1-Cycloheptylcarbonylmethyl-2,3-dihydro-2-oxo-5-phenyl-1H-1,4-benzodiazepin-3-yl)-N'-(3-methylphenyl)urea] |  |  | 0.018
Cc1cccc(NC(=O)NC2N=C(c3ccccc3)c3ccccc3N(CC(=O)C3CCCCC3)C2=O)c1 (racemic) [Example 7, N-((3RS)-1-Cyclohexylcarbonylmethyl-2,3-dihydro-2-oxo-5-phenyl-1H-1,4-benzodiazepin-3-yl)-N'-(3-methylphenyl)urea] |  |  | 0.047
Cc1cccc(NC(=O)N[C@@H]2N=C(c3ccccc3)c3ccccc3N(C)C2=O)c1 [reference compound] |  |  | 4.2
